# Assay results published in PMC4474691, “Leukemia-Associated Mutations in Nucleophosmin Alter Recognition by CRM1: Molecular Basis of Aberrant Transport” (PLoS ONE, 2015).
# *1 amine or outer side, *2 acyl side, *3 side chain or, on linkers, in order; H or OH if unused. Where a SMILES comes first, the peptide text is derived from it. Bridges are numbered along the chain shown (N, C = ends). Roman numbers before positions name the chains, in order. Where no end group is shown, it is not given here. [ ]: non-standard residue; d: D form. Actinocin(9to1) = Cc1c2oc3c(C)ccc(C(=O)[*:1])c3nc-2c(C(=O)[*:2])c(N)c1=O; NMeV = CN[C@H](C(=O)O)C(C)C; Sar = CNCC(=O)O
# Experiments:
# nuclear export = details: in vivo nuclear export assay; cited from earlier work
# Source text: Two sequence motifs in the core domain of NPM (residues 42–61 and 94–102) (Fig 1) have been investigated as candidate NESs. In addition, we have detected a further putative NES in the C-terminal region (see below). However, it is still unclear to what extent any of these sequences represents NPM physiological NESs. […] It is therefore not surprising that NPM deregulation is associated to cancer. NPM is overexpressed in several solid tumors (such as gastric, colon, ovarian, prostate cancer). In addition, small insertions and translocations affecting NPM1 gene, encoding NPM, are characteristic of certain hematological disorders. In fact, NPM1 is the most frequently mutated gene in adult acute myeloid leukemia (AML). […] The higher affinity of mutE(NES) for CRM1^HA is consistent with its stronger export activity previously observed using in vivo nuclear export assays. […] Thus, the ranking of in vitro CRM1^HA affinity (PKI(NES) (KD 579 n ...
# Myc-NPM in HEK293T cells = test: Localization of Myc-NPM in HEK293T cells; type: cell-based, human
# Description: (§1) Cell culture, transfection, treatment and imaging
# (§2) Human embryonic kidney 293T (HEK293T) and HeLa cells (ECACC) were grown in Dulbecco’s modified Eagle’s medium, supplemented with 10% fetal bovine serum, 100 units/ml penicillin and 100 μg/ml streptomycin (all from Invitrogen). The cells were seeded onto sterile glass coverslips in 12-well trays 24 h before transfection. Transfections were carried out with XtremeGENE 9 (Roche) following the manufacturer’s protocol. Treatment of cells with the different drugs was done at the indicated final concentrations and time periods: Actinomycin D (ActD, Sigma) at 5 μg / mL for 3 h, and hydroxyurea (HU, Sigma) at 4 mM for 24 h.
# Cells were fixed, either 20 or 42 h after transfection, with 3.7% formaldehyde in PBS for 30 min, then treated with 0.2% Triton X-100 in PBS for 10 min, for membrane permeabilization and incubated for 1 h in blocking solution (3% BSA in PBS). In YFP-CRM1 overexpression experiments, endogenous NPM was detected with anti-B23 (Santa Cruz Biotechnology FC82291, dilution 1:800), Myc3-NPM with anti-Myc (Cell Signalling 2276, dilution 1:2000) and Flag-SurvNLS with anti-Flag (Sigma F1704, dilution 1:300). Primary antibodies were diluted in blocking solution. In all cases, the secondary antibody was Alexa Fluor 594 anti-mouse (Invitrogen A11005, dilution 1:400). […] Slides were examined using a Zeiss Axioskop fluorescence microscope. […]
# [1] = system: endogenous NPM in HEK293T cells; test: Localization of endogenous NPM in HEK293T cells; type: cell-based, human
# Description: as §1, §2
# Cells were fixed, either 20 or 42 h after transfection, with 3.7% formaldehyde in PBS for 30 min, then treated with 0.2% Triton X-100 in PBS for 10 min, for membrane permeabilization and incubated for 1 h in blocking solution (3% BSA in PBS). In YFP-CRM1 overexpression experiments, endogenous NPM was detected with anti-B23 (Santa Cruz Biotechnology FC82291, dilution 1:800), Myc3-NPM with anti-Myc (Cell Signalling 2276, dilution 1:2000) and Flag-SurvNLS with anti-Flag (Sigma F1704, dilution 1:300). Primary antibodies were diluted in blocking solution. In all cases, the secondary antibody was Alexa Fluor 594 anti-mouse (Invitrogen A11005, dilution 1:400). Washing between the different steps were carried out with PBS. […] Slides were examined using a Zeiss Axioskop fluorescence microscope. For quantification, at least 200 cells were “blind counted” and classified as having nuclear (or nucleolar), nuclear/cytoplasmic or cytoplasmic localization of NPM (or the Flag-SurvNLS control). […]
# Fig 2 Localization of endogenous and ectopically expressed NPM and effect of treatment with actinomycin D (ActD) and CRM1 overexpression in HEK293T cells. […] Green denotes YFP (Y) or YFP-CRM1 (YC) fluorescence; red, immunostaining of endogenous NPM; and blue, DAPI fluorescence. […] More than 200 cells were “blind” counted. […] (D) Quantification of cytoplasmic (C) or nuclear and cytoplasmic (N/C) localization of overexpressed Flag-SurvNLS and Myc-NPM. […]
# CRM1^HA [2] = biological target: T1, CRM1^HA (Mus musculus, UniProt Q6P5F9, L431A/V430A/V432A); test: Isothermal titration calorimetry, CRM1^HA / NES; type: binding; details: for binding response: titrated onto CRM1^HA, result in words
# T1 construct: His-ZZ (cleaved yes); made in house; host or cells: Escherichia coli BL21-CodonPlus (DE3)
# T1 sequence (Q6P5F9 1-1062 V430A/L431A/V432A limits assumed): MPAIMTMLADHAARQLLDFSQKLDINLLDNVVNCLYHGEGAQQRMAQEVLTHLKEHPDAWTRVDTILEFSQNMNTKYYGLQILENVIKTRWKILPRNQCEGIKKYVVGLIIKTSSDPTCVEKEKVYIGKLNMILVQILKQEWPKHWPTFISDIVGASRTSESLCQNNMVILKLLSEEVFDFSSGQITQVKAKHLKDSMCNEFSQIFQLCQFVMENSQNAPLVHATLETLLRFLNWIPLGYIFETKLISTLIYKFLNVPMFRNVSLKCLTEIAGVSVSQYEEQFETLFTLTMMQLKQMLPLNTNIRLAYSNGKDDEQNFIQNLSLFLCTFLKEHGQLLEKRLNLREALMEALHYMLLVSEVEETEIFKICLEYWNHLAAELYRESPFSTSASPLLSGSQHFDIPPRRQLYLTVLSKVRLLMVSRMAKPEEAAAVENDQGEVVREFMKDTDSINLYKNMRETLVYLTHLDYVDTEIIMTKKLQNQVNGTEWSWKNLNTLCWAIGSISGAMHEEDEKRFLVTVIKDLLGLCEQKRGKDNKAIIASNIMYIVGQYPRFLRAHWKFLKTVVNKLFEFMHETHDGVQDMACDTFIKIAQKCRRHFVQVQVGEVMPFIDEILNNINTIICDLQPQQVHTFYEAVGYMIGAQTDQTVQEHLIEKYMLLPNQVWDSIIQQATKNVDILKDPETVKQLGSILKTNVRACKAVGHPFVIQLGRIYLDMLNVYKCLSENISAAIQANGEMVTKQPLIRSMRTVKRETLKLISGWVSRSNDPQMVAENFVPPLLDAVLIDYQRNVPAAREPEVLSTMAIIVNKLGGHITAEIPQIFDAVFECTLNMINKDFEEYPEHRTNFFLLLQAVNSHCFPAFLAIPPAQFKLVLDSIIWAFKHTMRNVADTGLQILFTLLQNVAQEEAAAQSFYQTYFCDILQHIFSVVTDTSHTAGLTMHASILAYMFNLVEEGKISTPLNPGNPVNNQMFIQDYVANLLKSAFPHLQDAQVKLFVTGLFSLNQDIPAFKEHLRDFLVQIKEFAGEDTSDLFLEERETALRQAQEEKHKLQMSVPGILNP
# Description: Isothermal titration calorimetry (ITC)
# ITC measurements were carried out using a VIP-ITC MicroCalorimeter (MicroCal, Inc., Northampton, MA). TFP and YFP constructs, as well as CRM1^HA, were dialyzed in a buffer containing 20 mM HEPES, pH 7.4, 50 mM NaCl, 1 mM TCEP, 1 mM MgCl2, and degassed prior to the experiment. Untagged peptides (AS: QDLCLAVEEVSLRK, AL: EAIQDLCLAVEEVSLRK, ES: QDLWQSLAQVSLRK and EL: EAIQDLWQSLAQVSLRK), N-acetylated and 95% pure, were purchased from Proteogenix (Schiltigheim, France) and resuspended in the ITC buffer. Measurements were performed at 20°C. TFP-NES, YFP-NES or NES peptides at 35–180 μM were titrated onto CRM1^HA at 2–14 μM. Injections of 6 μL were performed at 320 seconds interval (the first injection always was of 1 μL and is not considered in data analysis). To determine the thermodynamic parameters of NPM / importin interaction, importin α, importin Δα or importin α/β at 45–60 μM were titrated onto NPM (1–1.2 μM pentamer) in 50 mM Tris/HCl, pH 7.5, 100 mM NaCl, 2 mM TCEP, and 10% glycerol. […] “Reverse” titrations, where 20–30 μM NPM was titrated onto 7–10 μM of the different importins were also performed and yielded similar results.
# The reaction heat of each injection is related to the calorimetric enthalpy of binding, ΔH^0. The binding isotherms, ΔH^0 vs. molar ratio, were analyzed with an independent binding sites model using MicroCal Origin software. The fit of the binding curve yields the binding constant KA (KD = 1/KA) and the enthalpy ΔH^0 of the binding reaction. The Gibbs free energy of binding ΔG^0 and the entropy ΔS^0 are determined from the basic thermodynamic expressions: ΔG^0 = -RTlnKA = ΔH^0−TΔS^0, where R and T are the gas constant and the absolute temperature, respectively.
# Fig 5 Analysis of CRM1^HA/TFP-NES interaction by ITC. Isothermal titration of CRM1^HA with TFP-mutE(NES). […] The titration of negative control TFP-Cter (180 μM) onto CRM1^HA (14 μM) (circles) is also shown for comparison.
# CRM1^HA [3] = biological target: T1, CRM1^HA; test: Fluorescence anisotropy binding assay, CRM1^HA; details: 0–60 μM CRM1^HA, 25°C
# Description: Fluorescence anisotropy binding assays
# To estimate CRM1 binding affinities for NES motifs we monitored binding with a fluorescence-polarization assay based on previously described approaches. The increase in fluorescence anisotropy of TFP/YFP when the TFP/YFP-NES construct (50 nM) binds to 0–60 μM CRM1 (either CRM^HA or wild type) was recorded at 25°C with a 8100 SLM-Aminco spectrofluorometer in buffer 20 mM Tris/HCl, pH 7.4, 50 mM NaCl, 5 mM DTT, 2 mM MgCl2. Excitation and emission wavelengths were 463, 500 nm for TFP and 463, 533 nm for YFP, and slits width 4 and 8 nm, respectively.
# Fig 4 Binding of CRM1 to TFP-NES constructs. (A) Scheme of the engineered TFP constructs, showing the sequence of the NES motifs. Φ residues are highlighted in red. (B) Titration of CRM1 onto the different TFP constructs (50 nM), at 25°C, in buffer 20 mM Tris/HCl, pH 7.4, 50 mM NaCl, 5 mM DTT, 2 mM MgCl2: Left panel: Binding of CRM1^HA (solid symbols) or wild type CRM1 (empty symbols) to TFP-PKI(NES). Right panel: Binding of CRM1^HA to TFP-mutE(NES) (triangles) and TFP-mutA(NES) (squares). Fraction bound was calculated from the relative increase in fluorescence anisotropy of TFP (λexc 463 nm, λem 500 nm). Error bars correspond to at least three measurements per CRM1 concentration.
# We next used the TFP-(NES) constructs to monitor CRM1^HA binding to each motif, using the change in fluorescence anisotropy upon complex formation as a readout (Fig 4B), as previously described. […] The different nature of the fluorescent tag, and/or the linker between the fluorescent protein and the NES (2 residues longer in the YFP-PKI construct) could explain the discrepancy. […] To isolate the CRM1 / NES interaction under study from the influence of the tag protein, we have also conducted binding assays with peptides corresponding to the NES motifs (see below).
# [4] = ITC, NES ligand (35–180 μM) titrated onto CRM1^HA (2–14 μM), 20°C, 20 mM HEPES pH 7.4, 50 mM NaCl, 1 mM TCEP, 1 mM MgCl2, independent binding sites model, read-out: KD
# [5] = TFP/YFP-NES construct 50 nM, 20 mM Tris/HCl pH 7.4, 50 mM NaCl, 5 mM DTT, 2 mM MgCl2, at least three measurements per CRM1 concentration, read-out: apparent KD (C50)
compound,measurement,setting,value
"94–102: candidate NES motif in the core domain of NPM (ITPPVVLRL; UniProt P06748 94-102, looked up, fragment)",NES export activity in cells,nuclear export,border-line activity
"Cc1c2oc3c(C)ccc(C(=O)N[C@@H]4C(=O)N[C@H](C(C)C)C(=O)N5CCC[C@H]5C(=O)N(C)CC(=O)N(C)[C@@H](C(C)C)C(=O)O[C@@H]4C)c3nc-2c(C(=O)N[C@@H]2C(=O)N[C@H](C(C)C)C(=O)N3CCC[C@H]3C(=O)N(C)CC(=O)N(C)[C@@H](C(C)C)C(=O)O[C@@H]2C)c(N)c1=O [ActD, actinomycin D] (I: T[dV]P[Sar][NMeV] / II: T[dV]P[Sar][NMeV]; ester I:1-I:C, II:1-II:C; linker I:N-II:N via Actinocin(9to1))",cells with nuclear/cytoplasmic localization of Myc-NPM,"Myc-NPM in HEK293T cells; YFP-CRM1 co-expression and ActD (5 μg/mL, 3 h), >200 cells counted",33%
same,cytoplasmic localization of endogenous NPM,"[1]; HEK293T expressing YFP-CRM1, ActD 5 μg/mL 3 h where ActD",a further increase was observed
same,nuclear/cytoplasmic localization of endogenous NPM,"[1]; YFP-transfected HEK293T, ActD 5 μg/mL 3 h, no CRM1 overexpression","does not affect, however, the amount of cells displaying nuclear/cytoplasmic localization of NPM"
"NC(=O)NO [HU, hydroxyurea]","cells with cytoplasmic relocation of Myc-NPM, YFP-CRM1 co-expression with HU","Myc-NPM in HEK293T cells; YFP-CRM1 co-expression, hydroxyurea 4 mM 24 h (increase from 20%)",50%
same,effect of HU on endogenous NPM localization,[1]; hydroxyurea 4 mM 24 h (data not shown),could not be observed on endogenous NPM
Ac-EAIQDLCLAVEEVSLRK [peptide AL],Kd,CRM1^HA [2],57 ± 10 nM
Ac-EAIQDLWQSLAQVSLRK [peptide EL],Kd,CRM1^HA [2]; [4],31 ± 1 nM
Ac-QDLWQSLAQVSLRK [peptide ES],Kd,CRM1^HA [2]; [4],76 ± 1 nM
"DLWQSLAQVSLRK [TFP-mutE(NES), NES of NPM mutant E as C-terminal fusion to teal fluorescent protein]",Kd,CRM1^HA [2]; [4],1040 ± 41 nM
same,ΔH,"CRM1^HA [2]; ITC, NES ligand titrated onto CRM1^HA, 20°C, 20 mM HEPES pH 7.4",-15.4 ± 3.1 kcal/mol
same,-TΔS,"CRM1^HA [2]; ITC, NES ligand titrated onto CRM1^HA, 20°C, 20 mM HEPES pH 7.4, from ΔG = ΔH − TΔS",7.4 ± 3.1 kcal/mol
same,n (binding stoichiometry),"CRM1^HA [2]; ITC, NES ligand titrated onto CRM1^HA, 20°C, 20 mM HEPES pH 7.4, low n of peptides might result from limited solubility",0.80 ± 0.19
same,ΔG,"CRM1^HA [2]; ITC, NES ligand titrated onto CRM1^HA, 20°C, 20 mM HEPES pH 7.4, ΔG = -RTlnKA",-8.0 ± 0.0 kcal/mol
same,Kd,"CRM1^HA [2]; ITC, TFP-NES titrated onto CRM1^HA, 20°C, 20 mM HEPES pH 7.4, rounded, read-out: KD",1000 nM
same,Kd,"CRM1^HA [3]; TFP-NES 50 nM, pH 7.4, rounded, read-out: apparent KD",2200 nM
same,Kd,CRM1^HA [3]; [5],2160 ± 556 nM
"DLWQSLAQVSLRK [mutE(NES), acquired NES motif of AML-associated NPM mutant E]","relative affinity for CRM1^HA, mutant E NES vs mutant A NES","CRM1^HA [2]; anisotropy, ITC with TFP constructs and ITC with untagged peptides",approximately double that of mutant A
same,NES export activity in cells,nuclear export,"much higher than that of mutant A NES, and comparable to the export activity of PKI(NES)"
"DLWQWRKSL [TFP-Cter, negative control construct containing the last 9 C-terminal residues of wild type NPM]",binding response,"CRM1^HA [2]; ITC, 20°C, 20 mM HEPES pH 7.4","small exothermic peaks (Fig 5), which may reflect a non-specific binding"
"LALKLAGLDI [PKI(NES), in b48 the value is that of TFP-PKI(NES), reference compound]",Kd,CRM1^HA [3]; [5],579 nM
"QDLCLAVEEVSLRK [peptide AS, short version of the NES motif of mutant A]",binding response,"CRM1^HA [2]; ITC, 20°C, 20 mM HEPES pH 7.4",showed no binding in our conditions
"residues 42–49: candidate NES motif in the core domain of NPM (LSLRTVSL; UniProt P06748 42-49, looked up, fragment)",NES export activity in cells,nuclear export,border-line activity
